Consider 85 compounds from PubChem BioAssay AID2305 (GlaxoSmithKline (GSK), 2010).

The structures appear in SMILES notation. pIC50: −log10 of the molar value.

This test deals with P. falciparum 3D7 growth, pLDH absorbance. Nature of the test: P. falciparum 3D7 growth inhibition, dose response, strain 3D7 (AID 2305).

The pIC50 is the negative decadic logarithm of the IC50, by convention in mol/L. `O=C(/C=C/c1ccc(Cl)c(Cl)c1)NCCCCCN1CCC(NC(=O)Nc2cc(Cl)cc(Cl)c2)CC1` gave a pIC50 of 6.14.
As to `CC(C)(CNC(=O)C1CCN(CCOc2ccc(Cl)cc2)CC1)c1nc(-c2ccc(Cl)c(O)c2)c(-c2ccncc2)[nH]1`, the pIC50 was 6.15.
The compound `CN(C)CCNCc1ccc(-c2ccc(-c3nc4ccc(F)cc4[nH]3)cc2)cc1` showed a pIC50 of 6.33.
On to `Cc1[nH]c2ccccc2c1C1CCN(CCCCNC(=O)c2ccc(-c3ccc(C#N)cc3)cc2)CC1`, for which the pIC50 was 6.15.
For `NC(N)=NC(=O)Nc1cc(Cl)c(Cl)c(Br)c1`, the pIC50 is 6.21.
Under `Cc1ccc(C2(C)CN(CCCOc3cccc(-c4ccc(C(=O)NC(C)C)cc4)c3)CCO2)cc1` (stereo not given) stands 6.02; under `NC(N)=NC(=O)Nc1ccc([N+](=O)[O-])c(Cl)c1`, 6.06.
The compound `CCCCC(=O)Nc1nc2ccc([N+](=O)[O-])cc2s1` gave a pIC50 of 6.12.
`COc1cccc(O)c1CNCC(O)c1cccc(C(F)(F)F)c1` (stereo not given) showed a pIC50 of 6.02.
The same measure for `CC(C)Cn1c2ccccc2c2nc3nc(N)nc(N)c3nc21`: 6.14.
The same measure for `Cc1cc2nc(-c3ccc(C(=O)NCc4ccc(Cl)c(Cl)c4)cc3)[nH]c2cc1C`: 6.08; for `O=C(CN1CCN(C(=O)c2ccco2)CC1)Nc1ccc(Br)cc1Cl`: 6.11.
`O=C(Nc1ccc(-c2cccc(-c3nc4ccc(F)cc4[nH]3)c2)cc1)Nc1ccc(F)c(F)c1F` had a pIC50 of 6.13.
Take `FC(F)(F)c1ccc2nc(-c3ccc(-c4cccc(CNCC5CCCO5)c4)cc3)[nH]c2c1` (stereo not given): the pIC50 is 6.60.
`CCCCCn1c(Sc2ccc(C#N)c([N+](=O)[O-])c2)nnc1-c1cccs1` had a pIC50 of 6.11.
Turning to `COc1ccccc1C1CCN(C2CCC(NC(=O)/C=C/c3cccc(Cl)c3)CC2)CC1` (stereo not given), the pIC50 was 5.99.
As for `CN1CCC(C(=O)N(Cc2ccc(-c3ccc(CNCCc4ccc(S(C)(=O)=O)cc4)cn3)cc2)Cc2ccc3c(c2)OCO3)CC1`, the pIC50 was 6.00.
Compound `COc1ccc(CN(C)CCCSc2ccc(NC(=O)c3cccc4c(=O)cc(-c5ccccc5)[nH]c34)cc2)cc1OC` gave a pIC50 of 6.04.
Take `CNc1ccc(CNCc2cccc(-c3ccc(-c4nc5ccc(C(F)(F)F)cc5[nH]4)cc3)c2)cc1`: the pIC50 was 6.96.
Turning to `CCN(CC)S(=O)(=O)c1ccc(C(=O)Oc2ccccc2N(Cc2ccc(OC)cc2)C2=NS(=O)(=O)c3ccccc32)cc1`, the pIC50 was 6.24.
Turning to `CC(=O)Nc1ccc(C(=O)Nc2cccc(-c3cccc(-c4nc5ccc(F)cc5[nH]4)c3)c2)cn1`, the pIC50 is 6.89.
For the compound `CCNc1cc(C)nc(Nc2ccc(F)cc2)n1`, the pIC50 is 6.10.
The same measure for `COc1cc2nc(NCc3ccccc3)nc(NCc3ccccc3)c2cc1OC`: 6.82; for `O=C(CN1CCN(C(=O)c2ccco2)CC1)Nc1ccccc1Br`: 6.25.
In turn, `CS(=O)(=O)CCOCc1ccc(-c2ccc3ncnc(Nc4ccc(OCc5cccc(F)c5)c(Cl)c4)c3c2)o1` gave a pIC50 of 6.10.
For the compound `O=C(Nc1ccc2ccccc2c1)N(CCCn1ccnc1)Cc1csc(-c2ccc(CNCc3ccccc3)cc2)n1`, the pIC50 is 6.13.
The same measure for `CC1CC1C(=O)NC1CCN(CC2(c3ccccc3)CCCCC2)CC1` (stereo not given): 6.19; for `CC(C)c1cccc(OCC2CCN(c3ncc(C(=O)Nc4ccccc4)cc3Cl)CC2)c1`: 5.97.
Regarding `Cc1cc(C(=O)N[C@H]2CCN(Cc3ccc(OCCCN(C)C)cc3)C2)ccc1Br`, the pIC50 is 6.05.
The compound `O=C(Nc1ccc(Cl)cc1)N[C@H]1CCN(Cc2ccc(OCCCN3CCCCC3)cc2)C1` showed a pIC50 of 6.17.
In turn, `O=C(NC1CCCCC1)N(Cc1cccc(-c2cccc(CNC3CCCC3)c2)c1)C1CCN(Cc2ccccc2)CC1` showed a pIC50 of 6.13.
`C=CCOC(=O)N1CCC(CNCc2ccc(-c3ccc(-c4nc5ccc(C(F)(F)F)cc5[nH]4)cc3)cc2)C1` (stereo not given) gave a pIC50 of 6.82.
The compound `CCN(CC)CCN(Cc1ccc(-c2ccc(C(F)(F)F)cc2)cc1)C(=O)Cn1c(CCc2cccc(F)c2F)nc(=O)c2sccc21` gave a pIC50 of 6.05.
For the compound `O=C(/C=C/c1ccc(Cl)c(Cl)c1)NCCCCCN1CCC(NC(=O)c2ccc(F)cc2F)CC1`, the pIC50 was 6.12.
On to `COc1ccc2c(NN=Cc3cccnc3)ccnc2c1`, for which the pIC50 was 6.17.
The same measure for `CC(C)CN1CCC(COc2ccc3ncn(-c4cc(O[C@H](C)c5ccccc5C(F)(F)F)c(C(N)=O)s4)c3c2)CC1`: 6.21; for `Cc1ccccc1CNCC(O)c1cccc(C(F)(F)F)c1` (stereo not given): 6.06.
Consider `Nc1ccc2[nH]cc(C3CCN(CC4CCC(NC(=O)/C=C/c5ccccc5Cl)CC4)CC3)c2n1` (stereo not given), for which the pIC50 is 6.16.
In turn, `COc1ccc(-c2cc(C(=O)N[C@@H](CC3CCCCC3)C(=O)NC3CCCc4ccccc43)ccc2O)cc1` (stereo not given in full) had a pIC50 of 6.16.
`NC(=NC1CC1)c1ccc2nc(CCCCCc3nc4ccc(C(N)=NC5CC5)cc4[nH]3)[nH]c2c1` showed a pIC50 of 6.03.
On to `CC(C)[C@H](NCC(=O)c1ccccc1)C(=O)O`, for which the pIC50 was 6.11.
Under `CCN(CCCN1CCCCC1)c1cc(C)nc(Nc2ccc(C)c(C)c2)n1` stands 5.99; under `CNC(=O)c1ccc2nc(-c3ccc(-c4ccccc4)cc3)n(CC3CCN(CC4CCCC4)CC3)c2c1`, 7.40.
Take `N#Cc1ccc(N[C@@H](CC2CCCCC2)C(=O)NCc2cc(Cl)cc(Cl)c2)c2ccccc12`: the pIC50 was 5.96.
Under `Cc1cc(C2CCN(CCCCNC(=O)c3ccc(-c4ccc(C#N)cc4)cc3)CC2)c(C)cc1O` stands 6.07; under `CC(C)(C)c1ccc2oc(=O)n(C3CCN(C(=O)c4ccc([N+](=O)[O-])o4)CC3)c2c1`, 6.09.
Turning to `Cc1ccccc1NC1=NC(=S)N(c2cccc(C(F)(F)F)c2)C12CCC(C(C)(C)C)CC2` (stereo not given), the pIC50 was 6.01.
Under `CC(C)(C)c1ccc(CN2CCC(NC(=O)c3cc(-c4cccc(C(F)(F)F)c4)cs3)C2)cc1` (stereo not given) stands 6.09; under `N#Cc1ccc(C2CCN(CC[C@H](N)Cc3ccc(Cl)s3)CC2)cc1`, 5.90; under `Cc1cc(NCCC(=O)NCCOc2ccccc2)nc(NCc2ccccc2C)n1`, 6.06.
With `O=C(Nc1ccc(-c2cccc(-c3nc4ccccc4[nH]3)c2)cc1)Nc1ccc(Cl)c(Cl)c1`, the pIC50 was 6.34.
In turn, `CC1(C)N=C(N)N=C(N)N1OCCCNC(=O)c1ccc(C(=O)NCCCON2C(N)=NC(N)=NC2(C)C)cc1` had a pIC50 of 7.70.
`NC1=NC2(CCCCC2)N(OCCOc2ccc(Cc3ccccc3)cc2)C(N)=N1` gave a pIC50 of 5.95.
For the compound `O[C@H]1[C@H](OCc2ccc(-c3ccccc3)cc2)CC[C@@H]1N1CCCCC1`, the pIC50 is 5.97.
The same measure for `Cc1ccc(Nc2nc3cc(Nc4ccnc(Nc5ccc(CS(C)(=O)=O)cc5)n4)ccc3o2)cc1`: 6.12; for `COc1cc2nc(NCCn3ccnc3C)nc(NCCc3ccccc3)c2cc1OC`: 6.14; for `COc1cc(C(=O)N2CCOC(CCN3CCC(Cc4ccc(F)cc4)CC3)(c3ccc(Cl)c(Cl)c3)C2)cc(OC)c1OC` (stereo not given): 6.05.
`c1ccc(CCNCc2ccc(-c3cccc(CNc4ccc5ncccc5c4)c3)cc2)cc1` gave a pIC50 of 6.03.
The compound `COc1ccccc1-c1cccc2c(NC(=O)Nc3ccc4nccc(N5CCN(C)CC5)c4c3)ccnc12` had a pIC50 of 6.00.
For the compound `O=C(CNC1CCCCC1)c1ccc(O)c(O)c1`, the pIC50 was 6.18.
The same measure for `CCCCCCCCS(=O)(=O)NCCCC1CCN(CCCCCNC(=O)C=Cc2ccc(Cl)c(Cl)c2)CC1`: 6.07.
The compound `COc1ccc(C(=O)CCC(=O)N(Cc2ccc(-c3ccc(CNCCc4ccc(S(C)(=O)=O)cc4)cn3)cc2)C(C)CN(C)C)cc1F` (stereo not given) had a pIC50 of 6.19.
For the compound `CN(C)Cc1ccc(-c2ccc3c(Nc4ccc(Oc5ccccn5)cc4)ccnc3c2)o1`, the pIC50 was 6.80.
For `CC(C)COc1ccc(Cl)cc1Cc1ccc(-c2nc3ccc(Cl)cc3[nH]2)o1`, the negative logarithm of the IC50 (pIC50) was 6.03.
In turn, `CCc1nc2nc(C)cc(Nc3ccc(F)c(Cl)c3)n2n1` showed a pIC50 of 6.01.
The same measure for `CN(Cc1c(Cl)cnn1C)S(=O)(=O)c1ccc2ccccc2c1`: 5.98; for `CCNc1cc(C(=O)N[C@@H](Cc2ccccc2)[C@H](O)CNCCc2ccccc2)cc(N2CCCC2=O)c1`: 6.08.
Compound `COc1ccc2c(=O)c(C3CCC(c4ccc(Cl)cc4)CC3)c(C)[nH]c2c1` (stereo not given) had a pIC50 of 6.19.
As to `COc1cccc(CNC[C@@H](O)[C@H](Cc2ccccc2)NC(=O)c2cc(C(C)C)cc(N3CCCC3=O)c2)c1`, the pIC50 is 6.02.
Turning to `CCCSc1nc2c(c(=O)n1CCc1ccccc1)C1(CCCC1)Cc1ccccc1-2`, the pIC50 is 6.15.
With `O=C(Nc1ccc(CN2CCOCC2)cc1)c1ccc(-c2ccc(Br)cc2)o1`, the pIC50 is 5.95.
Under `CCO[C@H]1CN[C@H](C#Cc2cc3c(Nc4ccc(OCc5cccc(F)c5)c(Cl)c4)ncnc3s2)C1` stands 6.03; under `O=C(/C=C/c1ccc(Cl)c(Cl)c1)NC1CCC(CN2CCC(c3c[nH]c4ccncc34)CC2)CC1` (stereo not given), 6.40.
In the case of `CC(C)Cn1c(Sc2ccc(C#N)c([N+](=O)[O-])c2)nnc1-c1cccc(Cl)c1`, the pIC50 was 6.52.
For `COc1cc2nc(Nc3ccc(N4CCOCC4)cc3)nc(N)c2cc1OC`, the pIC50 was 6.06.
Regarding `Cc1ccc(C)c(NC(=O)NC2CCN(c3ccnc(Nc4ccc(F)cc4)n3)C2)c1` (stereo not given), the pIC50 was 6.17.
Under `COc1ccccc1CCNc1nc(C)cc(N[C@@H](Cc2ccccc2)C(=O)NCc2cccc(F)c2)n1` stands 6.06; under `CC(=O)Nc1ccc(OCCN(Cc2ccccc2OC(F)(F)F)c2ccc(C(F)(F)F)c(C#N)c2)c(Cl)c1`, 6.34; under `CCN(CC)CCCNc1c2ccccc2nc2ccccc12`, 6.12.
`Cc1[nH]c(C)c(-c2ccc(-c3ccc4c(c3)OCO4)nc2)c(=O)c1Br`: the negative-log IC50 (pIC50) was 6.72.
On to `COc1ccc(N2CCN(CCCCNCc3ccc(NC(=O)c4cc(Cl)cc(Cl)c4)cc3)CC2)c(OC)c1`, for which the pIC50 was 6.60.
Regarding `COCCNCc1ncsc1-c1ccc2c(Nc3cc(O)c(Cl)cc3F)ccnc2c1`, the pIC50 is 6.26.
Consider `COc1ccc2ncc(C#N)c(CCN3CCC(NCc4cnc5c(c4)OCCO5)CC3)c2n1`, for which the pIC50 is 6.22.
In turn, `N#Cc1cccc(NC(=O)Nc2ccc(CC(=O)N3CCc4cc(Cl)c(N5CCN(C/C=C/c6ccccc6)CC5)cc43)cc2)c1` had a pIC50 of 6.06.
In the case of `CCCCCN1CCC(NS(=O)(=O)c2cccc(C(=O)Nc3cccc(C(F)(F)F)c3)c2)C1` (stereo not given), the pIC50 was 6.08.
